These results are taken from ChEMBL document CHEMBL1201862, “PubChem BioAssay data set” (2004).

Test systems include HT-29; OVCAR-3; TK-10; SF-268; HCC 2998; OVCAR-4; COLO 205; LOX IMVI; OVCAR-8; SR; OVCAR-5; HCT-116; NCI-H460; SW-620; HCT-15; UO-31; MDA-MB-435; DU-145; MDA-MB-231.
Experiment in all cases: NCI-60 cell line screen, 48 h

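Five concentrations, 48 hours, 96-well plates. GI50 marks 50% less growth.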 Calls of active or inactive are those of the source. No stated cut-off is given here; in the data, active = GI50 up to about 1.1 µM and inactive = higher.

For the compound `COc1ccc(O)c2c(=O)ccccc12`, the GI50 in the assay on HT-29 was > 100 µM (inactive); in the assay on OVCAR-3, > 100 µM (inactive); in the assay with TK-10, 6.32 µM (inactive); in the assay with SF-268, > 100 µM (inactive); in the assay on HCC 2998 it was > 100 µM (inactive); with OVCAR-4, > 100 µM (inactive). For the same compound, the GI50 with COLO 205, in the assay with LOX IMVI, in the assay with OVCAR-8, in the assay with SR, in the assay with OVCAR-5 and with HCT-116 was > 100 µM (inactive) in each case. For the same compound, the GI50 in the assay on NCI-H460 is > 100 µM (inactive); in the assay on SW-620, > 100 µM (inactive); in the assay with HCT-15, > 100 µM; in the assay on UO-31 it was 78.2 µM (inactive).

Regarding `CC(=O)Nc1ccc(C(=O)NN2C(=O)CSC2c2ccc([N+](=O)[O-])cc2)cc1` (stereo unspecified), the GI50 with HT-29 is > 100 µM (inactive); with MDA-MB-435 it was > 100 µM (inactive); with DU-145 it was > 100 µM (inactive); in the assay on OVCAR-3 it was > 100 µM (inactive); in the assay on TK-10, > 100 µM (inactive); in the assay with SF-268, 79.8 µM (inactive). For the same compound, the GI50 with HCC 2998, with OVCAR-4, in the assay with COLO 205, with OVCAR-8, with OVCAR-5 and with HCT-116 was > 100 µM (inactive) throughout. The GI50 in the assay on NCI-H460 was > 100 µM (inactive); in the assay on SW-620, > 100 µM (inactive); in the assay with MDA-MB-231 it was 75.9 µM (inactive); in the assay with HCT-15 it was > 100 µM; in the assay on UO-31, > 100 µM (inactive).

For `CC(C)OP(=O)(OC(C)C)/C(Cl)=N/Nc1ccc([N+](=O)[O-])cc1`, the GI50 in the assay with OVCAR-3, with TK-10, in the assay with SF-268, in the assay on HCC 2998, with OVCAR-4 and in the assay on COLO 205 was > 100 µM (inactive) each time. For the same compound, the GI50 in the assay with LOX IMVI was 44.9 µM (inactive); in the assay on OVCAR-8, > 100 µM (inactive); with SR, 92.3 µM (inactive); in the assay on OVCAR-5, > 100 µM (inactive); in the assay on HCT-116, > 100 µM (inactive); in the assay on NCI-H460, > 100 µM (inactive). The GI50 is > 100 µM (inactive) in the assay on SW-620, > 100 µM in the assay with HCT-15 and > 100 µM (inactive) in the assay with UO-31.

For `COc1cc(O)c2c(c1)O[C@@H]1OCC[C@H]21`, the GI50 in the assay on HT-29, in the assay with OVCAR-3, with TK-10, with HCC 2998, with OVCAR-4 and in the assay with COLO 205 was > 100 µM (inactive) in each case. Also, the GI50 with LOX IMVI, in the assay with OVCAR-8, in the assay with SR, in the assay on OVCAR-5, in the assay with HCT-116 and in the assay on NCI-H460 was > 100 µM (inactive) throughout. Moreover, the GI50 in the assay on SW-620 is > 100 µM (inactive); in the assay on HCT-15 it was > 100 µM; in the assay on UO-31 it was > 100 µM (inactive).

For the compound `COc1cc2c(cc1OC)C1c3ccccc3CCN1CC2` (stereo unspecified), the GI50 in the assay on HT-29 was 28.5 µM (inactive); in the assay with MDA-MB-435, 37.2 µM (inactive); in the assay with DU-145 it was > 100 µM (inactive); in the assay on OVCAR-3, > 100 µM (inactive); with TK-10, > 100 µM (inactive); in the assay with SF-268, > 100 µM (inactive). In addition, the GI50 with HCC 2998 is 43.6 µM (inactive); with OVCAR-4, > 100 µM (inactive); in the assay with COLO 205, 58.7 µM (inactive); in the assay with LOX IMVI it was 48.6 µM (inactive); in the assay with OVCAR-8, > 100 µM (inactive); with SR it was > 100 µM (inactive). In addition, the GI50 in the assay on OVCAR-5 was > 100 µM (inactive); in the assay on HCT-116, 36.8 µM (inactive); in the assay on NCI-H460 it was 94.4 µM (inactive); in the assay on SW-620, 63.2 µM (inactive); with MDA-MB-231, 68.7 µM (inactive); in the assay with HCT-15, > 100 µM.

For `O=C1CCNC/C1=C\c1ccccc1`, the GI50 in the assay on HT-29 was 15.6 µM (inactive); with OVCAR-3 it was 22.9 µM (inactive); with TK-10, 26.1 µM (inactive); in the assay on SF-268, 19.6 µM (inactive); in the assay on HCC 2998, 20.1 µM (inactive); with OVCAR-4, 15.9 µM (inactive). Moreover, the GI50 in the assay with COLO 205 was 40.6 µM (inactive); in the assay with LOX IMVI, 16.8 µM (inactive); with OVCAR-8, 22.2 µM (inactive); in the assay with SR it was 25.2 µM (inactive); in the assay with OVCAR-5, 24.7 µM (inactive); in the assay on HCT-116 it was 17.9 µM (inactive). The GI50 in the assay with NCI-H460 is 30.9 µM (inactive); with SW-620, 21.8 µM (inactive); in the assay on HCT-15, 17.1 µM; in the assay on UO-31, 17 µM (inactive).

In the case of `NC(CCSCC(F)F)C(=O)O` (stereo unspecified), the GI50 in the assay on HT-29, in the assay on OVCAR-3, with TK-10, in the assay on SF-268, in the assay with HCC 2998 and in the assay on OVCAR-4 was > 100 µM (inactive) throughout. The GI50 with COLO 205, in the assay with LOX IMVI, with OVCAR-8, with SR, in the assay with OVCAR-5 and in the assay with HCT-116 was > 100 µM (inactive) each time. In addition, the GI50 in the assay with NCI-H460 is > 100 µM (inactive); in the assay on SW-620 it was > 100 µM (inactive); with HCT-15, > 100 µM; with UO-31, > 100 µM (inactive).

As for `Nc1ncnc2c1ncn2C1(CO)OC(CO)C(O)C1O` (stereo unspecified), the GI50 with HT-29, in the assay on TK-10, with SF-268, in the assay on HCC 2998, in the assay on OVCAR-4 and with COLO 205 was > 100 µM (inactive) in each case. Also, the GI50 in the assay with LOX IMVI, in the assay on SR, in the assay on OVCAR-5, with HCT-116, in the assay with NCI-H460 and in the assay on SW-620 was > 100 µM (inactive) each time. In addition, in the assay on HCT-15, the GI50 was > 100 µM.

`COC(=O)C1(O)c2ccccc2N=C2C1CCN2C` (stereo unspecified): the GI50 in the assay on HT-29, in the assay with TK-10, in the assay on SF-268, with HCC 2998, with OVCAR-4 and in the assay with COLO 205 was > 100 µM (inactive) each time. Moreover, the GI50 in the assay with LOX IMVI, in the assay on OVCAR-8, with SR, in the assay on OVCAR-5, with HCT-116 and in the assay with NCI-H460 was > 100 µM (inactive) throughout. Also, the values for the GI50 with SW-620, with HCT-15 and in the assay with UO-31 were > 100 µM (inactive), > 100 µM and > 100 µM (inactive), respectively.

For the compound `COc1cc2c(cc1OC)-c1c(cc(OC)c(OC)c1OC)C2=O`, the GI50 in the assay with HT-29, with OVCAR-3, in the assay with TK-10, in the assay on SF-268, in the assay with HCC 2998 and in the assay on COLO 205 was > 100 µM (inactive) each time. Also, the GI50 in the assay with LOX IMVI, in the assay on OVCAR-8, with SR, in the assay on OVCAR-5, in the assay with HCT-116 and with NCI-H460 was > 100 µM (inactive) each time. The GI50 with SW-620 was > 100 µM (inactive); in the assay with HCT-15, > 100 µM; with UO-31 it was 83.4 µM (inactive).

As for `CS/C(=N\c1nccs1)NC(=O)c1cccc(Cl)c1`, the GI50 with HT-29 is > 100 µM (inactive); with OVCAR-3, 75.2 µM (inactive); with TK-10 it was 73.5 µM (inactive); in the assay on SF-268, > 100 µM (inactive); with HCC 2998 it was > 100 µM (inactive); in the assay on OVCAR-4 it was 68.1 µM (inactive). Moreover, the GI50 in the assay on COLO 205 is 46.1 µM (inactive); in the assay on LOX IMVI, 83.6 µM (inactive); in the assay on OVCAR-8 it was > 100 µM (inactive); in the assay with SR, 24.6 µM (inactive); with OVCAR-5, > 100 µM (inactive); in the assay on HCT-116, > 100 µM (inactive). Besides, the GI50 is > 100 µM (inactive) with NCI-H460, > 100 µM (inactive) with SW-620, 24.9 µM with HCT-15 and 62.4 µM (inactive) in the assay with UO-31.

Turning to `CC1CCCc2c1c1ccc3c(O)cccc3c1oc2=O` (stereo unspecified), the GI50 in the assay with HT-29 was > 100 µM (inactive); with OVCAR-3, 64.1 µM (inactive); with TK-10, 28.8 µM (inactive); in the assay with SF-268 it was 17.3 µM (inactive); with HCC 2998, > 100 µM (inactive); with OVCAR-4, 14.1 µM (inactive). For the same compound, the GI50 in the assay on COLO 205 is > 100 µM (inactive); in the assay with LOX IMVI, 95.5 µM (inactive); in the assay on OVCAR-8 it was 31.3 µM (inactive); with SR, > 100 µM (inactive); in the assay on OVCAR-5, 71.8 µM (inactive); in the assay with HCT-116, 91.8 µM (inactive). The GI50 in the assay on NCI-H460 is > 100 µM (inactive); with SW-620, > 100 µM (inactive); in the assay with HCT-15, > 100 µM; with UO-31, > 100 µM (inactive).

In the case of `CC1(C)CCOC(=O)C(Cl)CC1Cl` (stereo unspecified), the GI50 in the assay on HT-29, with MDA-MB-435, in the assay on DU-145, in the assay with OVCAR-3, in the assay with TK-10 and with SF-268 was > 100 µM (inactive) throughout. For the same compound, the GI50 in the assay with HCC 2998, in the assay with OVCAR-4, with COLO 205, in the assay with LOX IMVI, with OVCAR-8 and in the assay with SR was > 100 µM (inactive) each time. Also, the GI50 is > 100 µM (inactive) in the assay with OVCAR-5; > 100 µM (inactive) in the assay on HCT-116; > 100 µM (inactive) with NCI-H460; > 100 µM (inactive) in the assay with SW-620; > 100 µM (inactive) in the assay on MDA-MB-231; > 100 µM in the assay on HCT-15.
